Measured values from paper PMC9412875, “^64Cu-DOTHA2-PSMA, a Novel PSMA PET Radiotracer for Prostate Cancer with a Long Imaging Time Window” (Pharmaceuticals, 2022).

What was measured:
LNCaP tumor = experiment: Tumor-bearing mice biodistribution after PET; format: in vivo, NRG mice; conditions: 24 h p.i.
Protocol: Balb/c mice (n = 30) were injected with a bolus of ^64Cu-DOTHA2-PSMA by the tail vein (in 0.3 mL of saline: 3 MBq for 1 h, 2 h, and 4 h p.i., 7.5 MBq for 24 h p.i. and 21 MBq for 48 h p.i.). Injected activity had to be increased for later time points to ensure reliable detection and reliability in organs with a low uptake, e.g., the brain. At all timepoints, blood was collected using a heparin-coated syringe by femoral vein puncture and mice were then euthanized and dissected. Harvested tissues were rinsed, blotted dry, and then weighted and counted in gamma counter. The results are reported as the %IA per gram of tissue. The biodistribution results were compared with the ^68Ga-PSMA-617 results obtained by our team at 1 h and 2 h p.i.
PET imaging of NRG mice and supplemental tumor-bearing mice were biodistributed 24 h p.i. as described for balb/c mice.

[1] = Plasma stability (ex vivo) and protein binding in mouse serum/plasma; format: in vitro ADME; conditions: for 64Cu released from Proteins / 64Cu-DOTHA2-PSMA Released from Proteins: after 10% TFA; for proportion of free 64Cu: excess natCu-DOTHA2-PSMA
Protocol: Plasma stability studies were carried out by incubating ^64Cu-DOTHA2-PSMA (50 MBq in 250 μL PBS buffer) in 250 μL of mouse serum at 37 °C for up to 24 h. The plasma was then mixed twice with ethanol (1:1) to precipitate all the proteins. The samples were subjected to vortex mixing for 1 min and then centrifugation for 10 min at 7000 rpm. Plasma proteins were separated from the soluble component by ultracentrifugation and the radioactivity was assessed. The supernatant fraction was assayed by radio-TLC on C18 plates and by UPLC; free ^64Cu(OAc)2 and ^64Cu-DOTHA2-PSMA were used as standards. The radio-TLCs were eluted with 0.1 M sodium citrate buffer at pH 5.5 using an Instant Imager system (BioScan, DC, U.S.A.) for radiodetection. The precipitated proteins were again subjected to 10% TFA, vortexed for 2–3 min, and then centrifuged for 10 min at 7000 rpm. The separation and analysis for the supernatant and the proteins were performed in the same manner.
The protein binding ability was evaluated by incubating ^64Cu-DOTHA2-PSMA (100 MBq) in phosphate buffer (250 μL, pH 7) at 37 °C and fresh mouse serum (250 μL) and for 1 h, 4 h, and 24 h. Plasma proteins were precipitated by the addition of ethanol (1:1, v/v) to the plasma samples, followed by centrifugation at 7000 rpm for 5 min at room temperature and separation of the supernatant. This process was repeated three times with the same volume of ethanol, and the supernatants were pooled. The radioactivity content of the supernatant and the precipitated protein were measured in a dose calibrator to obtain the protein binding percentage.

[2] = Blocked (n=4), co-injection of natCu-DOTHA2-PSMA
[3] = ex vivo, mouse plasma, 100 equiv. natCu-DOTHA2-PSMA, 1 h
[4] = ex vivo, mouse plasma, 100 equiv. natCu-DOTHA2-PSMA, 4 h
[5] = ex vivo, mouse plasma, 100 equiv. natCu-DOTHA2-PSMA, 24 h

With CN([O-])C(=O)CN1CCN(CC(=O)NCC2CCC(C(=O)NC(Cc3ccc4ccccc4c3)C(=O)NCCCCC(NC(=O)NC(CCC(=O)O)C(=O)O)C(=O)O)CC2)CCN(CC(=O)N(C)[O-])CCN(CC(=O)N(C)O)CC1.[64Cu+2] (centres unmarked) [^64Cu-DOTHA2-PSMA] the Adrenals uptake (LNCaP tumor; [2]) was 9.02 %IA/g, the Blood uptake (LNCaP tumor; [2]) was 1.91 %IA/g and the Bone uptake (LNCaP tumor; [2]) was 0.91 %IA/g. The Brain uptake (LNCaP tumor; [2]) was 0.38 %IA/g, the Fat uptake (LNCaP tumor; [2]) was 0.26 %IA/g and the Heart uptake (LNCaP tumor; [2]) was 3.00 %IA/g. The Intestin uptake (LNCaP tumor; [2]) was 8.53 %IA/g, the Kidneys uptake (LNCaP tumor; [2]) was 6.86 %IA/g and the LNCaP tumor uptake (LNCaP tumor; [2]) was 7.44 %IA/g. It also gave a Lungs uptake (LNCaP tumor; [2]) of 5.99 %IA/g, a Muscles uptake (LNCaP tumor; [2]) of 0.47 %IA/g and a Pancreas uptake (LNCaP tumor; [2]) of 2.09 %IA/g. It also gave a Plasma uptake (LNCaP tumor; [2]) of 2.54 %IA/g, a Salivary gl. uptake (LNCaP tumor; [2]) of 1.84 %IA/g and a Seminal gl. uptake (LNCaP tumor; [2]) of 0.59 %IA/g. The Skin uptake (LNCaP tumor; [2]) was 0.50 %IA/g, the Spleen uptake (LNCaP tumor; [2]) was 6.99 %IA/g and the Stomach uptake (LNCaP tumor; [2]) was 5.55 %IA/g. For the same molecule, the Tail uptake (LNCaP tumor; [2]) was 1.36 %IA/g, the Testis uptake (LNCaP tumor; [2]) was 1.03 %IA/g and the Thyroid uptake (LNCaP tumor; [2]) was 1.33 %IA/g. For the same molecule, the liver uptake (LNCaP tumor; [2]) was 15.15 %IA/g, the Adrenals uptake (LNCaP tumor; Non-blocked (n=11)) was 4.70 %IA/g and the Blood uptake (LNCaP tumor; Non-blocked (n=11)) was 3.46 %IA/g. It also gave a Bone uptake (LNCaP tumor; Non-blocked (n=11)) of 2.38 %IA/g, a Brain uptake (LNCaP tumor; Non-blocked (n=11)) of 0.75 %IA/g and a Fat uptake (LNCaP tumor; Non-blocked (n=11)) of 0.63 %IA/g. The Heart uptake (LNCaP tumor; Non-blocked (n=11)) was 5.20 %IA/g, the Intestin uptake (LNCaP tumor; Non-blocked (n=11)) was 15.69 %IA/g and the Kidneys uptake (LNCaP tumor; Non-blocked (n=11)) was 13.24 %IA/g. For the same molecule, the LNCaP tumor uptake (LNCaP tumor; Non-blocked (n=11)) was 17.33 %IA/g, the Lungs uptake (LNCaP tumor; Non-blocked (n=11)) was 14.30 %IA/g and the Muscles uptake (LNCaP tumor; Non-blocked (n=11)) was 1.10 %IA/g. The Pancreas uptake (LNCaP tumor; Non-blocked (n=11)) was 2.80 %IA/g, the Plasma uptake (LNCaP tumor; Non-blocked (n=11)) was 4.52 %IA/g and the Salivary gl. uptake (LNCaP tumor; Non-blocked (n=11)) was 4.18 %IA/g. For the same molecule, the Seminal gl. uptake (LNCaP tumor; Non-blocked (n=11)) was 1.13 %IA/g, the Skin uptake (LNCaP tumor; Non-blocked (n=11)) was 1.07 %IA/g and the Spleen uptake (LNCaP tumor; Non-blocked (n=11)) was 10.10 %IA/g. The Stomach uptake (LNCaP tumor; Non-blocked (n=11)) was 9.17 %IA/g, the Tail uptake (LNCaP tumor; Non-blocked (n=11)) was 2.37 %IA/g and the Testis uptake (LNCaP tumor; Non-blocked (n=11)) was 1.96 %IA/g. The Thyroid uptake (LNCaP tumor; Non-blocked (n=11)) was 2.57 %IA/g, the liver uptake (LNCaP tumor; Non-blocked (n=11)) was 28.54 %IA/g and the “demetallation or degradation in mouse serum (radio-UPLC, radio-TLC)” value ([1]; 37 °C, up to 24 h) was “No major demetallation or degradation”. The “change of signal bound to plasma proteins on adding excess natCu-DOTHA2-PSMA” value ([1]; ex vivo, 4 h) was 1%, the “change of signal bound to plasma proteins on adding excess natCu-DOTHA2-PSMA” value ([1]; ex vivo, 24 h) was 6% and the “64Cu in the Supernatant” value ([1]; ex vivo, mouse plasma 37 °C, 1 h, % of total signal) was 0%. The “64Cu in the Supernatant” value ([1]; ex vivo, mouse plasma 37 °C, 4 h, % of total signal) was 1.98%, the “64Cu in the Supernatant” value ([1]; ex vivo, mouse plasma 37 °C, 24 h, % of total signal) was 1.28% and the “64Cu and 64Cu-DOTHA2-PSMA Bound to Plasma Proteins” value (from here on “64Cu and 64Cu-DOTHA2-PSMA Bound”) [1, 3] was 24%. For the same molecule, the “64Cu in the Supernatant” value [1, 3] was 0%, the “64Cu released from Proteins” value [1, 3] was 0.82% and the “64Cu and 64Cu-DOTHA2-PSMA Bound” value [1, 4] was 33%. The “64Cu in the Supernatant” value [1, 4] was 3.35%, the “64Cu released from Proteins” value [1, 4] was 0.84% and the “64Cu and 64Cu-DOTHA2-PSMA Bound” value [1, 5] was 30%. For the same molecule, the “64Cu in the Supernatant” value [1, 5] was 5.60%, the “64Cu released from Proteins” value [1, 5] was 2.14% and the “64Cu and 64Cu-DOTHA2-PSMA Bound” value ([1]; ex vivo, mouse plasma, 1 h) was 24%. For the same molecule, the “signal attributed to free 64Cu overall (supernatant and precipitate)” value ([1]; ex vivo, mouse plasma, 1 h) was 0.79%, the “64Cu-DOTHA2-PSMA Released from Proteins” value ([1]; ex vivo, mouse plasma, 1 h) was 15% and the “64Cu released from Proteins” value ([1]; ex vivo, mouse plasma, 1 h, % of total signal) was 0.79%. The “64Cu and 64Cu-DOTHA2-PSMA Bound” value ([1]; ex vivo, mouse plasma, 4 h) was 34%, the “signal attributed to free 64Cu overall (supernatant and precipitate)” value ([1]; ex vivo, mouse plasma, 4 h) was 2.62% and the “64Cu-DOTHA2-PSMA Released from Proteins” value ([1]; ex vivo, mouse plasma, 4 h) was 21%. The “64Cu released from Proteins” value ([1]; ex vivo, mouse plasma, 4 h, % of total signal) was 0.64%, the “64Cu and 64Cu-DOTHA2-PSMA Bound” value ([1]; ex vivo, mouse plasma, 24 h) was 36% and the “free 64Cu, share of the plasma supernatant signal (UPLC)” value ([1]; ex vivo, mouse plasma, 24 h) was “less than 3%”. For the same molecule, the “64Cu-DOTHA2-PSMA Released from Proteins” value ([1]; ex vivo, mouse plasma, 24 h) was 21%, the “64Cu released from Proteins” value ([1]; ex vivo, mouse plasma, 24 h, % of total signal) was 0.65% and the “proportion of free 64Cu” value ([1]; ex vivo, mouse plasma, 1 h) was 0.82%. The “proportion of free 64Cu” value ([1]; ex vivo, mouse plasma, 4 h) was 4.19% and the “proportion of free 64Cu” value ([1]; ex vivo, mouse plasma, 24 h) was 7.75%.
